These results are taken from ChEMBL document CHEMBL1134020, “3,4-Dihydro-1-isoquinolinamines: a novel class of nitric oxide synthase inhibitors with a range of isoform selectivity and potency” (Bioorg Med Chem Lett, 2001).

For assay [1], the target named is T1, Nitric oxide synthase 3 (Homo sapiens) (UniProt P29474).
T1 sequence (whole entry): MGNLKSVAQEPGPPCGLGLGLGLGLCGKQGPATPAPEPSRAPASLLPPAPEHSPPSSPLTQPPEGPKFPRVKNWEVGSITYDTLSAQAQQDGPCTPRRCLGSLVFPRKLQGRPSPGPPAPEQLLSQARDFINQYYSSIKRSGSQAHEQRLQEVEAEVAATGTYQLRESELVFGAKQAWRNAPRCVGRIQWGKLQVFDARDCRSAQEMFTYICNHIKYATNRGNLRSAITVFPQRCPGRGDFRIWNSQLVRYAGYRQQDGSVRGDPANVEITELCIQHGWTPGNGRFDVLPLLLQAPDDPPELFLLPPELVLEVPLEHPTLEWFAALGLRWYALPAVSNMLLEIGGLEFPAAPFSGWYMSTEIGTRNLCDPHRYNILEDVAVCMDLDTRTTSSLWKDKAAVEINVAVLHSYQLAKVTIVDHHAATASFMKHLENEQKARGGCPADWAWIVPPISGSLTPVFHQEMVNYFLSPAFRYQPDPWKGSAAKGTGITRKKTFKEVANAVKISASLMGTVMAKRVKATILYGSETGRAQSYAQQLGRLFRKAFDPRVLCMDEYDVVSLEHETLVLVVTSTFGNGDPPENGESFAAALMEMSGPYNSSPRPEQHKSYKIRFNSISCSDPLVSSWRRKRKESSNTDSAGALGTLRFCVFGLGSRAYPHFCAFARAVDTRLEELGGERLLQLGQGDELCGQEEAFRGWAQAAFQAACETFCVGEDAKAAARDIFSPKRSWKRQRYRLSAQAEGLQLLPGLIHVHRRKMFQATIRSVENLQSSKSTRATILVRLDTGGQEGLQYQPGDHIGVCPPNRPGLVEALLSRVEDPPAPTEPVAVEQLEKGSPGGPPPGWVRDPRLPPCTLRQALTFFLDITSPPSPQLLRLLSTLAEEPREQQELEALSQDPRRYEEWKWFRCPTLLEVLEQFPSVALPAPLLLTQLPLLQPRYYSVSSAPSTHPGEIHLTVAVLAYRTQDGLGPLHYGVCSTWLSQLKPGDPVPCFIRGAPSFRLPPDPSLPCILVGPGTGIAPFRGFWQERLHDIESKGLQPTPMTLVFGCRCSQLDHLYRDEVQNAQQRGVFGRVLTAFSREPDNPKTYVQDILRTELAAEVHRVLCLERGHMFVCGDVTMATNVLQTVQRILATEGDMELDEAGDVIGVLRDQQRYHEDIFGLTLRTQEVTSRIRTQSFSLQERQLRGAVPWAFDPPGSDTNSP
In words: Ability (at 100 catalyzed by endothelial NOS (e NOS) from HUVEC cells. As to conditions: concentration not given here. It counts as functional, cell-based.

The target of assay [2] is Nitric oxide synthase 1 (Rattus norvegicus, UniProt P29476). In words: Inhibition of conversion of [3H]L-Arg to [3H]L-citrulline catalyzed by neuronal NOS (n NOS) from rat cerebellum. The assay is classed as functional, tissue-based.
Nitric oxide synthase 1, sequence (P29476 whole entry): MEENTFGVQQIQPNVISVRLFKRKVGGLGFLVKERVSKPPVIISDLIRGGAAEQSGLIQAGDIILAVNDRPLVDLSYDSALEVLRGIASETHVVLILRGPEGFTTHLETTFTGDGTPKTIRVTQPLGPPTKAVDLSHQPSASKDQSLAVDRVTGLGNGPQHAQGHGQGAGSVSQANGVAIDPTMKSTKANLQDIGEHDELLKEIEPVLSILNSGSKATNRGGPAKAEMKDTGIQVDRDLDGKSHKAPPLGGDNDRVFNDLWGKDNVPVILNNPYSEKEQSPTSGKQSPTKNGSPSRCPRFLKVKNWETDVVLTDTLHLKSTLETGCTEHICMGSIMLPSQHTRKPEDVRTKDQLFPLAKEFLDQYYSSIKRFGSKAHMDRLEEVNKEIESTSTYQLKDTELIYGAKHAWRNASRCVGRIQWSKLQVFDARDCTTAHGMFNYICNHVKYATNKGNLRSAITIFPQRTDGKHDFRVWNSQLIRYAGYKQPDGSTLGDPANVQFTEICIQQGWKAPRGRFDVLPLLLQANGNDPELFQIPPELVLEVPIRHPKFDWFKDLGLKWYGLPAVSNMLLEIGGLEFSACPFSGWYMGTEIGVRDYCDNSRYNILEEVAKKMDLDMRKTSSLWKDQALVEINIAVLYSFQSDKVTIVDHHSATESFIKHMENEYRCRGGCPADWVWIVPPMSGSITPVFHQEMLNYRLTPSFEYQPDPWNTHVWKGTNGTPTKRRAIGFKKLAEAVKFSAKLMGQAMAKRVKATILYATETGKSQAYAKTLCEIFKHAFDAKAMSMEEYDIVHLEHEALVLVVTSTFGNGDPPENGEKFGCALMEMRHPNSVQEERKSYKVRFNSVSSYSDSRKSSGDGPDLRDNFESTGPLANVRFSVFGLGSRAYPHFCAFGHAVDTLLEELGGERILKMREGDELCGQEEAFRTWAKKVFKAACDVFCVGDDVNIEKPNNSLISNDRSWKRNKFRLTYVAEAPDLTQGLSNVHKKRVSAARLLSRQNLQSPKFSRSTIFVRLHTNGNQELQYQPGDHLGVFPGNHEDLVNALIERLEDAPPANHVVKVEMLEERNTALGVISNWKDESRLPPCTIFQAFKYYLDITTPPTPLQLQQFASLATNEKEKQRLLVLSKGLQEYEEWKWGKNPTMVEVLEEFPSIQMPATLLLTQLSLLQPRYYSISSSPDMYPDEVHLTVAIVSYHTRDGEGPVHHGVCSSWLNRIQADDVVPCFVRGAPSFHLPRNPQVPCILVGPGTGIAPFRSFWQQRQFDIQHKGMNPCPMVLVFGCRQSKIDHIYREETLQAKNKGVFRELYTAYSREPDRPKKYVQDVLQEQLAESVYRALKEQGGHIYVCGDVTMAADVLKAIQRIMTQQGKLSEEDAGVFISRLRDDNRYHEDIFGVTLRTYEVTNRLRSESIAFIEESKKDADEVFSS
Assay [3] has as its target T2, Nitric oxide synthase 3 (Homo sapiens, UniProt P29474).
T2 sequence (P29474 whole entry): T1 sequence (whole entry)
The assay can be described thus: Ability to inhibit conversion of [3H]L-Arg to [3H]L-citrulline catalyzed by endothelial NOS (e NOS) from HUVEC cells. It counts as functional, cell-based.

Assay [4] concerns the target T3, Nitric oxide synthase, inducible (Homo sapiens, UniProt P35228). In words: Ability to inhibit conversion of [3H]L-Arg to [3H]L-citrulline catalyzed by inducible NOS (i NOS) from human DLD-1 cells. The assay is classed as functional, cell-based.
The target of assay [5] is T3, Nitric oxide synthase, inducible. In words: Inhibitory concentration against nitric oxide synthesis in intact DLD-1 cells. The assay is classed as functional, cell-based.
The test system of assay [6] is DLD-1. In words: (§1) Ability (at 100 catalyzed by inducible NOS (i NOS) from human DLD-1 cells. It counts as functional.
The species entered for assay [7] is Rattus norvegicus. The assay can be described thus: Ability (at 100 catalyzed by neuronal NOS (n NOS) from rat cerebellum. The assay is classed as functional.
Assay [8] has as its system DLD-1. The assay is described as §1. The assay is classed as functional, cell-based.

Where “and” joins values, the source holds several entries; their conditions need not be identical. Identical values can stand only once.

T3 sequence (P35228 whole entry): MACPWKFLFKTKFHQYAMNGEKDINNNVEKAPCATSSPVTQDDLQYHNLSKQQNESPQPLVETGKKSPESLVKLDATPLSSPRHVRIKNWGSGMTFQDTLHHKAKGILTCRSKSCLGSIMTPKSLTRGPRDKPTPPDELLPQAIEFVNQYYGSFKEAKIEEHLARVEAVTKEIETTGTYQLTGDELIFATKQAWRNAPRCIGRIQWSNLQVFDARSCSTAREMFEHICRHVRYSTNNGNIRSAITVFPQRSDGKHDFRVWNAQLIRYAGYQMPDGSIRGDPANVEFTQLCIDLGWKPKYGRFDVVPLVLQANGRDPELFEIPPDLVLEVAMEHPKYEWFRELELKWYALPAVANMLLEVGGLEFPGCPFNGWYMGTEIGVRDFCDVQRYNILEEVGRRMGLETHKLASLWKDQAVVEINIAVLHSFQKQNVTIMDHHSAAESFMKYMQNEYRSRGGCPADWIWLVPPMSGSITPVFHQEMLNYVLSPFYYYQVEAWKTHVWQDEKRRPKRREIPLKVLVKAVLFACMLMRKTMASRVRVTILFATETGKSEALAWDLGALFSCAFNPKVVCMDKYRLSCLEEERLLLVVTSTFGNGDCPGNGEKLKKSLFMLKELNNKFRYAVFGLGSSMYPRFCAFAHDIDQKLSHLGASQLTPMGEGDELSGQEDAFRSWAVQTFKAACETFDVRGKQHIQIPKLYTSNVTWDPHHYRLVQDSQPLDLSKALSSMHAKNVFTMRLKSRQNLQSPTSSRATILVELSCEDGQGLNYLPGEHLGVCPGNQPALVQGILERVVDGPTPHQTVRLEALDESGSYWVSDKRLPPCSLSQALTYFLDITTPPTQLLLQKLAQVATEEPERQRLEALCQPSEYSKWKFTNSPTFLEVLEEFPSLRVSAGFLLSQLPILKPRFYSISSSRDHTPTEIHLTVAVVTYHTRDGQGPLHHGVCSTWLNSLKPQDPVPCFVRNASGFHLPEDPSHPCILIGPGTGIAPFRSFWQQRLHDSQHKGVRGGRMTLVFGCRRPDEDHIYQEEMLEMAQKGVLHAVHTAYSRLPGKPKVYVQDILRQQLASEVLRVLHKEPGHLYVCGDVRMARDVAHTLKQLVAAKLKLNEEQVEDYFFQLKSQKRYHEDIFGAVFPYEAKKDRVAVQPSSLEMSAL

`NC1=NC(c2cccc(F)c2)Cc2ccccc21` (centres undefined): the inhibition in assay [1] is less than 25%. The figures for the IC50 in assay [2] and in assay [3] were 10 µM and 9 µM, respectively.

As for `NC1=NC(c2ccc(F)cc2)Cc2c(F)cccc21` (centres undefined), the IC50 in assay [2] is 5 µM; in assay [3] it was 44 µM; in assay [4] it was 4.7 µM.

As for `COC(=O)[C@@H](N)CCCNC(=N)N[N+](=O)[O-]` [L-NAME], the IC50 in assay [2] amounted to 0.15 µM; in assay [5], 300 µM; in assay [3], 2.7 µM; in assay [4], 14 µM.

As to `NC1=NC(c2ccc(F)cc2)Cc2cc(F)ccc21` (centres undefined), the IC50 was 20 µM in assay [2], 100 µM in assay [3] and 9 µM in assay [4].

In assay [6], `NC1=NC(c2ccc(F)cc2)Cc2ccc(F)cc21` (centres undefined) came in with an Inhibition of 43%. In addition, the values for the concentration for half-maximal inhibition (IC50) in assay [2] and in assay [3] were 44 µM and 55 µM, respectively.

Take `CC1Cc2ccccc2C(N)=N1` (centres undefined): the values for the IC50 in assay [2], in assay [3] and in assay [4] were 3 µM, 4 µM and 18 µM, respectively.

Take `NC1=NC(C2CC2)Cc2ccccc21` (centres undefined): the half-inhibitory concentration (IC50) came to 1.5 µM in assay [2], 300 µM in assay [5], 3.6 µM in assay [3] and 1.3 µM in assay [4].

For `NC1=NC(c2ccco2)Cc2ccccc21` (centres undefined), the values for the IC50 in assay [2], in assay [3] and in assay [4] were 0.9 µM, 5 µM and 1.2 µM, respectively.

For `NC1=NC(c2ncc[nH]2)Cc2ccccc21` (centres undefined), the inhibition in assay [1] was 47% and < 25%. The same compound returned an Inhibition in assay [7] of less than 25%.

For the compound `CC(=N)NCCCC[C@H](N)C(=O)O` [L-NIL], the concentration for half-maximal inhibition (IC50) in assay [2] is 1.6 µM; in assay [5], 470 µM; in assay [3], 2.4 µM; in assay [4], 0.13 µM.

As to `NC1=NC(c2ccccc2F)Cc2ccccc21` (centres undefined), the IC50 in assay [2] came to 13 µM; in assay [3] it was 44 µM; in assay [4] it was 33 µM.

Turning to `N=C(N)NN` [PIMAGEDINE], the figures for the IC50 in assay [2], in assay [3] and in assay [4] were 6 µM, 72 µM and 4.5 µM, respectively.

Take `NC1=NC(c2ccc(F)cc2)Cc2ccccc21` (centres undefined): the IC50 was 9 µM in assay [2], 40 µM in assay [3] and 5.5 µM in assay [4].

As for `NC1=NC(c2ccc(F)cc2)Cc2cccc(F)c21` (centres undefined), the inhibition in assay [1] was less than 25%. Moreover, the IC50 in assay [2] came out at 16 µM; in assay [5], 350 µM.

Regarding `C#CC1Cc2ccccc2C(N)=N1` (centres undefined), the IC50 in assay [2] amounted to 0.4 µM; in assay [3], 0.9 µM; in assay [4] it was 2.7 µM.

With `NC1=NC(c2cccs2)Cc2ccccc21` (centres undefined), the IC50 in assay [2] was determined as 2 µM; in assay [3] it was 8 µM; in assay [4], 2.7 µM.

For the compound `NC1=NC(c2ccc(Cl)cc2)Cc2ccccc21` (centres undefined), in assay [6], the Inhibition is recorded as 46%. The IC50 in assay [2] worked out at 30 µM; in assay [3], 86 µM.

Regarding `NC1=NCCCc2ccccc21`, the Inhibition in assay [8] is less than 25%. In addition, the IC50 in assay [2] turned out to be 2 µM; in assay [3] it was 12 µM.

Compound `NC1=NC(c2ccc(F)cc2)Cc2cccc(Cl)c21` (centres undefined) registered an inhibition in assay [1] of 39%. Besides, the results for the IC50 in assay [2], in assay [5] and in assay [3] were 100 µM, 350 µM and 5 µM, respectively.

In turn, `NC1=NC(c2ccccc2)Cc2cccc(Cl)c21` (centres undefined) showed an inhibition in assay [1] of less than 25%. In addition, the Inhibition in assay [7] stood at 25%. The compound also displayed an IC50 in assay [3] of 6 µM.

In the case of `CC1(C)Cc2ccccc2C(N)=N1`, the inhibition in assay [1] was less than 25%. It took 10 µM to reach half-maximal inhibition in assay [2] (IC50).

In the case of `NC1=NC(c2ccccc2)Cc2cccc(F)c21` (centres undefined), the IC50 is 2 µM in assay [2], 130 µM in assay [5], 80 µM in assay [3] and 0.55 µM in assay [4].

Turning to `NC1=NC(c2ccccc2)Cc2ccccc21` (centres undefined), the inhibition in assay [1] is less than 25%. Besides, the IC50 in assay [2] came out at 12 µM; in assay [3] it was 9 µM.

On to `NC1=NCCc2ccccc21`, for which the figures for the IC50 in assay [2], in assay [3] and in assay [4] were 0.4 µM, 2 µM and 32 µM, respectively.

For `NC1=NC(c2nccs2)Cc2ccccc21` (centres undefined), the IC50 in assay [2] turned out to be 8 µM; in assay [5] it was 880 µM; in assay [3] it was 19 µM; in assay [4], 4.2 µM.
